Measured values reported in patent US12391671B2, “Allosteric EGFR inhibitors and methods of use thereof” (Dana-Farber Cancer Institute, Inc., priority 2019, dated 2025).
Where a name gives a salt, the structure may show the parent alone. Read-outs that look alike come from different tables or passages of the source.

Columns and labels:
EGFR L858R/T790M = EGFR L858R/T790M (Homo sapiens (Human), UniProt P00533, L858R/T790M); experiment: HTRF-based EGFR biochemical assay (L858R/T790M); conditions: 100 μM ATP, enzyme 0.02 nM
How it was run: (§1)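 Mutant EGFR (L858R 0.1 nM, L858R/T790M 0.02 nM) preincubated 30 min with compounds at room temperature in HEPES pH 7.0 buffer with Mg2+/Mn2+, then reacted 20 min with 1 μM biotinylated tyrosine kinase peptide and 100 μM ATP. Phosphorylation read by HTRF (Eu-cryptate anti-phosphotyrosine/streptavidin-XL665, 665/620 nm) after EDTA quench.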

EGFR L858R = EGFR L858R (Homo sapiens (Human), UniProt P00533, L858R); experiment: HTRF-based EGFR biochemical assay (L858R); conditions: 100 μM ATP, enzyme 0.1 nM
How it was run: as §1

[1] = test system: EGFR mutant L858R/T790M Ba/F3 cells; experiment: Ba/F3 cell proliferation model (Cell Titer Glo), EGFR L858R/T790M; format: cell-based, murine; conditions: 72 hours
How it was run: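 Retrovirally transduced Ba/F3 cells exposed 72 h to compound alone or with 1 μg/mL cetuximab, triplicate points, repeated at least three times. Viability by Cell Titer Glo luminescence (ATP); curves fitted by non-linear sigmoidal dose-response regression.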

[2] = test system: EGFR mutant L858R Ba/F3 cells; experiment: Ba/F3 cell proliferation model (Cell Titer Glo), EGFR L858R; format: cell-based, murine; conditions: Mus musculus, BaF3; single agent, 72 hours; read-out: Cell IC50 BaF3 EGFR L858R
From the text: Example 26: Ba/F3 Cell Proliferation Models
The EGFR mutant L858R and L858R/T790M Ba/F3 cells have been previously described (Zhou, W., et al. Nature 462, 2009, 1070-1074). All cell lines were maintained in RPM 1640 (Cellgro; Mediatech Inc., Herndon. CA) supplemented with 10% FBS, 100 units/mL penicillin, 100 units/mL streptomycin. The EGFR I941R mutation was introduced via site directed mutagenesis using the Quick Change Site-Directed Mutagenesis kit (Stratagene; La Jolla, CA) according to the manufacturer's instructions. All constructs were confirmed by DNA sequencing. The constructs were shuttled into the retroviral vector JP1540 using the Cre-recombination system (Agilent Technologies, Santa Clara, CA). Ba/F3 cells were then infected with retrovirus per standard protocols, as described previously (Zhou, et al, Nature 2009). Stable clones were obtained by selection in puromycin (2 μg/ml).
Growth and inhibition of growth was assessed by the Cell Titer Glo® assay (Promega, Madison, WI) and was performed according to the manufacturer's instructions. The Cell Titer Glo® assay is a luminescence-based method used to determine the number of viable cells based on quantitation of the ATP present, which is directly proportional to the amount of metabolically active cells present. Ba/F3 cells of different EGFR genotypes were exposed to compounds as a single agent or in combination with 1 μg/mL cetuximab for 72 hours and the number of cells used per experiment was determined empirically as has been previously established (Zhou, et al., Nature 2009). All experimental points were set up in triplicates in 384-well plates and all experiments were repeated at least three times. […] The curves were fitted using a non-linear regression model with a sigmoidal dose response.

[3] = test system: NSCLC resistant to gefitinib or erlotinib; conditions: patients with NSCLC that have developed resistance to gefitinib or erlotinib; cited from earlier work
[4] = Mus musculus, BaF3, single agent, read-out: Cell IC50 BaF3 EGFR L858R/T790M
[5] = in combination with 1 μg/mL cetuximab, read-out: Cell IC50 BaF3 EGFR L858R/T790M (+cetux.)

Chain of EGFR L858R (P00533 25-1210 L858R): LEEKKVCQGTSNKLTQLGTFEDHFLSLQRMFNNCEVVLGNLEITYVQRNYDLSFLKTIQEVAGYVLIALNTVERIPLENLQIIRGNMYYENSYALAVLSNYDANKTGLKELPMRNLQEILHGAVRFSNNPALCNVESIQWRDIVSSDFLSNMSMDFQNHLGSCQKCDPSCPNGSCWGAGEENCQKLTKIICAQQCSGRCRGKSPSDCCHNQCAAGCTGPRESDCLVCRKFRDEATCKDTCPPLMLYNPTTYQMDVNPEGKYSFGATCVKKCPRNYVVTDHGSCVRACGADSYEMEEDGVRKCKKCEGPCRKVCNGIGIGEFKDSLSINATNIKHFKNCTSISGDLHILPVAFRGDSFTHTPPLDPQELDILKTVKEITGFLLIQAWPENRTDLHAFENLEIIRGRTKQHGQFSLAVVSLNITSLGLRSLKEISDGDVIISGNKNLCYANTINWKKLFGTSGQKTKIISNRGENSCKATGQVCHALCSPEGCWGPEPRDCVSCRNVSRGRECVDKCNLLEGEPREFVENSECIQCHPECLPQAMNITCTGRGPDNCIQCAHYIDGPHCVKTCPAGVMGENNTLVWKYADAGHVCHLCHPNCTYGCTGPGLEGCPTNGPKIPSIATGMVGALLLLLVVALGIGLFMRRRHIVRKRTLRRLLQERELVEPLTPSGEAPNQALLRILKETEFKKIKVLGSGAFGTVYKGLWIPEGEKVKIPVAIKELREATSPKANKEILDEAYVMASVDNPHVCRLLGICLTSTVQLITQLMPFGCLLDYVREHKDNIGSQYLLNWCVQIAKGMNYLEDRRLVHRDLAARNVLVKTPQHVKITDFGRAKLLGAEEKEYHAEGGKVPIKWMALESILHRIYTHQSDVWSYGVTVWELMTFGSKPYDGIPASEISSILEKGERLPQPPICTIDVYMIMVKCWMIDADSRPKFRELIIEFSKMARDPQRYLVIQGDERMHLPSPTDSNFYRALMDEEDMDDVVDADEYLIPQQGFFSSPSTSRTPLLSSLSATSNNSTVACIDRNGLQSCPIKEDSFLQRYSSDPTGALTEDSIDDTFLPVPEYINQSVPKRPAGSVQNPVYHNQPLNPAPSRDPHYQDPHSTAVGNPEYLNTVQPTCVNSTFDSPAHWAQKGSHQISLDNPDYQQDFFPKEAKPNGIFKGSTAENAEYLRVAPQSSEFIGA
Chain of EGFR L858R/T790M (P00533 25-1210 T790M/L858R): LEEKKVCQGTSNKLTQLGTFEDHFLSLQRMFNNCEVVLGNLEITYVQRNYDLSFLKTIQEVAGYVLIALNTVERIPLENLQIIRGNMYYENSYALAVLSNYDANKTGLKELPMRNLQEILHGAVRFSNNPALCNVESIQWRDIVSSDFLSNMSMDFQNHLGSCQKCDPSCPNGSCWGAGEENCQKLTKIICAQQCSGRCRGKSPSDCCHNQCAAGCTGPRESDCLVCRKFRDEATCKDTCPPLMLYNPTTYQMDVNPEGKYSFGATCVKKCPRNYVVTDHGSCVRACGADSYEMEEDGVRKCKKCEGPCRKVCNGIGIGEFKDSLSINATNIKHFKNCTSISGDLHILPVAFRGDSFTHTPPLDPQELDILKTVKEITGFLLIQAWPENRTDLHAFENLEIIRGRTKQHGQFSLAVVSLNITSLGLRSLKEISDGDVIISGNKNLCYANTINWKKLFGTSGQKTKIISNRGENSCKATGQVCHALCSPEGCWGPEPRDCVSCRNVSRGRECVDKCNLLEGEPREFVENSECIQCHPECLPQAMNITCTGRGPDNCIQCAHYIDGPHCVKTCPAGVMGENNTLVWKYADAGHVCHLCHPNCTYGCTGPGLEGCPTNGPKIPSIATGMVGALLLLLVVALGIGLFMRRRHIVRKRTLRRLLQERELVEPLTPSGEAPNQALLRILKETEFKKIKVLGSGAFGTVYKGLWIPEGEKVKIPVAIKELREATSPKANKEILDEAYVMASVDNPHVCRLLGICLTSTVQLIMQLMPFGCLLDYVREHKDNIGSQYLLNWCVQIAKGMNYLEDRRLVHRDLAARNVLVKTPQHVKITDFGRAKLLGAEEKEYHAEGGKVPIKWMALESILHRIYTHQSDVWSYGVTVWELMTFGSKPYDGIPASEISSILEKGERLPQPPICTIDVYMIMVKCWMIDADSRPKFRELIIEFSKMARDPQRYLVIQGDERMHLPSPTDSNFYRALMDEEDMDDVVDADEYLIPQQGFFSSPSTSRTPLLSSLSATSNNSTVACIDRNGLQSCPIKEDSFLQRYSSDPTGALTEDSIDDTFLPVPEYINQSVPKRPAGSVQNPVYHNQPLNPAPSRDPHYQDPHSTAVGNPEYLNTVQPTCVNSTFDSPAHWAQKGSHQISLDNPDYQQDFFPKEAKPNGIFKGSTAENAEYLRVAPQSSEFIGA

| SMILES | IC50 (EGFR L858R/T790M) [nM] | IC50 (EGFR L858R) [nM] | IC50 [1, 4] [nM] | IC50 [1, 5] [nM] | IC50 [2] [nM] | RR (response rate) [3] |
| --- | --- | --- | --- | --- | --- | --- |
| CN1CCC2(c3ccc(-c4ccc5c(c4)C(=O)N(C(c4nc6ccccc6[nH]4)c4cc(F)ccc4O)C5)cc3)CC2C1 (centres unmarked) [Compound 079, 2-[1H-benzimidazol-2-yl-(5-fluoro-2-hydroxy-phenyl)methyl]-6-[4-(3-methyl-3-azabicyclo[4.1.0]heptan-6-yl)phenyl]isoindolin-1-one; dihydrochloride] | 0.8 | 3 | 190 | 7 | 830 |  |
| CN1CCC(c2ccc(-c3ccc4c(c3F)C(=O)N(C(c3nc5ccccc5[nH]3)c3cc(F)ccc3O)C4)cc2F)CC1 (centres unmarked) [Compound 080, 2-[1H-benzimidazol-2-yl-(5-fluoro-2-hydroxy-phenyl)methyl]-7-fluoro-6-[3-fluoro-4-(1-methyl-4-piperidyl)phenyl]isoindolin-1-one; dihydrochloride] | 0.6 | 3 | 210 | 10 | 500 |  |
| Cc1c(-c2ccc(C3CCN(C)CC3)cc2)ccc2c1C(=O)N(C(c1nc3ccccc3[nH]1)c1cc(F)ccc1O)C2 (centres unmarked) [Compound 082, 2-[1H-benzimidazol-2-yl-(5-fluoro-2-hydroxy-phenyl)methyl]-7-methyl-6-[4-(1-methyl-4-piperidyl)phenyl]isoindolin-1-one; dihydrochloride] | 0.6 | 3 | 220 | 20 | 670 |  |
| Cc1c[nH]c(C(c2cc(F)ccc2O)N2Cc3ccc(-c4ccc(C5CCN(C)CC5)cc4)cc3C2=O)n1 (centres unmarked) [Compound 085, 2-[(5-Fluoro-2-hydroxy-phenyl)-(4-methyl-1H-imidazol-2-yl)methyl]-6-[4-(1-methyl-4-piperidyl)phenyl]isoindolin-1-one] | 28 | 13 | 1290 | 50 | 780 |  |
| Cc1c[nH]c(C(c2cccc(F)c2)N2Cc3ccc(-c4ccc(C5CCN(C)CC5)cc4)cc3C2=O)n1 (centres unmarked) [Compound 086, 2-[(3-fluorophenyl)-(4-methyl-1H-imidazol-2-yl)methyl]-6-[4-(1-methyl-4-piperidyl)phenyl]isoindolin-1-one] | 25 | > 100 | 3220 |  | 3640 |  |
| Cc1nc(C(c2cc(F)ccc2O)N2Cc3ccc(-c4ccc(C5CCN(C)CC5)cc4)cc3C2=O)[nH]c1C (centres unmarked) [Compound 087, 2-[(4,5-dimethyl-1H-imidazol-2-yl)-(5-fluoro-2-hydroxy-phenyl)methyl]-6-[4-(1-methyl-4-piperidyl)phenyl]isoindolin-1-one] | 25 | > 100 | 1320 |  | 1370 |  |
| CN1CCC(Oc2ccc(-c3ccc4c(c3)C(=O)N(C(c3nc5ccccc5[nH]3)c3cc(F)ccc3O)C4)cc2)CC1 (centres unmarked) [Compound 090, 2-[1H-benzimidazol-2-yl-(5-fluoro-2-hydroxy-phenyl)methyl]-6-[4-[(1-methyl-4-piperidyl)oxy]phenyl]isoindolin-1-one] | 8 | 11 | 860 | 20 | 1430 |  |
| O=C1c2cc(-c3ccc(OC4CNC4)cc3)ccc2CN1C(c1nc2ccccc2[nH]1)c1cc(F)ccc1O (centres unmarked) [Compound 091, 6-[4-(azetidin-3-yloxy)phenyl]-2-[1H-benzimidazol-2-yl-(5-fluoro-2-hydroxy-phenyl)methyl]isoindolin-1-one; dihydrochloride] | 6 | 12 | 1050 | 120 | 1780 |  |
| CN1CCC(c2ccc(-c3ccc4cn(C(c5nc6ccccc6[nH]5)c5cc(F)ccc5O)nc4c3Cl)cc2)CC1 (centres unmarked) [Compound 092, 2-[1H-benzimidazol-2-yl-[7-chloro-6-[4-(1-methyl-4-piperidyl)phenyl]-indazol-2-yl]methyl]-4-fluoro-phenol; dihydrochloride] | 1 | 4 | 100 | 10 | 820 |  |
| CN1CCC(c2ccc(-c3ccc4cn(C(c5nc6ccccc6[nH]5)c5cc(F)ccc5O)nc4c3)cc2)CC1 (centres unmarked) [Compound 100, 2-((1H-Benzo[d]imidazol-2-yl)(6-(4-(1-methylpiperidin-4-yl)phenyl)-2H-indazol-2-yl)methyl)-4-fluorophenol; trifluoroacetate] | 4 | 14 | 530 |  | 2000 |  |
| CN1CCC(c2ccc(-c3cc4nn(C(c5nc6ccccc6[nH]5)c5cc(F)ccc5O)cc4cc3F)cc2)CC1 (centres unmarked) [Compound 118, 2-((1H-Benzo[d]imidazol-2-yl)(5-fluoro-6-(4-(1-methylpiperidin-4-yl)phenyl)-2H-indazol-2-yl)methyl)-4-fluorophenol] | 6 | 16 | 1310 |  | 4080 |  |
| CN1CCC(c2ccc(-c3cc(F)c4cn(C(c5nc6ccccc6[nH]5)c5cc(F)ccc5O)nc4c3)cc2)CC1 (centres unmarked) [Compound 119, 2-((1H-Benzo[d]imidazol-2-yl)(4-fluoro-6-(4-(1-methylpiperidin-4-yl)phenyl)-2H-indazol-2-yl)methyl)-4-fluorophenol; trifluoroacetate] | 3 | 11 | 420 |  | 780 |  |
| CN(C)C/C=C/C(=O)Nc1cc2c(Nc3ccc(F)c(Cl)c3)ncnc2cc1O[C@H]1CCOC1 [afatinib] |  |  |  |  |  | less than 10% |
